From US7833979B2, “Toxin peptide therapeutic agents” (Amgen Inc., priority 2005, dated 2010)
“Also recorded” adds a separate entry of the source. Where no end group is shown, it is not given here.

Columns and labels:
Kv1.3 = Kv1.3 (Homo sapiens, UniProt P22001); assay: Whole cell patch clamp electrophysiology on HEK293 cells stably expressing human Kv1.3; type: cell-based; conditions: for Blockade of human Kv1.3 current (in words): patch clamp electrophysiology; for selectivity ratio hKv1.1/hKv1.3: ratio of hKv1.1 IC50 to hKv1.3 IC50
Chain of Kv1.3 (P22001 whole entry): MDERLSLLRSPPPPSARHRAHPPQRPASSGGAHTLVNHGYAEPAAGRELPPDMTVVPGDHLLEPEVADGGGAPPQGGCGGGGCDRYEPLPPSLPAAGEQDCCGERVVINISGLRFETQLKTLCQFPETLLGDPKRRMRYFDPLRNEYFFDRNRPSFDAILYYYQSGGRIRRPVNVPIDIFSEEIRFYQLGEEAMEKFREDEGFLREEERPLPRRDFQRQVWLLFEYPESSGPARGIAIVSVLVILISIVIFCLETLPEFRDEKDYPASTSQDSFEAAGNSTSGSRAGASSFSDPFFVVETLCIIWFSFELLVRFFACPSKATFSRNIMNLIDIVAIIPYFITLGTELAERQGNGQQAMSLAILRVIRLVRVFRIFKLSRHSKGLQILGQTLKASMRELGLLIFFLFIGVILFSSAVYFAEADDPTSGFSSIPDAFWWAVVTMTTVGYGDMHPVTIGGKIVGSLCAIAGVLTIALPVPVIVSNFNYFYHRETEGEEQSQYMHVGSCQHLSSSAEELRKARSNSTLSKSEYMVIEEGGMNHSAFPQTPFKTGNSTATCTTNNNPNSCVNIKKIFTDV

[1] = Intravenous pharmacokinetic study in rats, serum levels by Kv1.3 inhibition bioassay; type: in vivo, Spraque Dawley rats; conditions: for Time of significant suppression of Kv1.3 current (<70 POC) by serum: single equal molar IV injection, 5% serum Test solutions
Method: This dose represented equal molar amounts of these two molecules. The average weight of the rats was about 0.3 kg and two rats were used for each dose & molecule. At various times following IV injection, blood was drawn and about 0.1 ml of serum was collected. Serum samples were stored frozen at −80° C. until analysis.
Assay Plate preparation for electrophysiology. […] Before experiments, each sample was thawed at room temperature and an aliquot (70 to 80 μl) was transferred to a well in a 96-well polypropylene plate. In order to prepare the Assay Plate, several dilutions were made from the pharmacokinetic serum samples to give rise to Test Solutions. Dilutions of serum samples from the pharmacokinetic study were into 10% Phosphate Buffered Saline (PBS, with Ca^2+ and Mg^2+). […] Standard inhibition curves were also prepared in the Assay Plate.
Cell preparation for electrophysiology. CHO cells stably expressing the voltage-activated K^+ channel, Kv1.3 were plated in T-175 tissue culture flasks (at a density of 5×10^6) 2 days before experimentation and allowed to grow to around 95% confluence. Immediately prior to the experiment, the cells were washed with PBS and then detached with a 2 ml mixture (1:1 volume ratio) of trypsin (0.25%) and versene (1:5000) at 37° C. (for 3 minutes). […] The mean K^+ current amplitude was measured between 430 and 440 ms and the data were exported to a Microsoft Excel spreadsheet. The amplitude of the K^+ current in the presence of each concentration of the Test Solution or Standard was expressed as a percentage of the K^+ current in control conditions in the same well.
Standard inhibition curves were generated for each standard in various levels of rat serum and expressed as current percent of control (POC) versus log of nM concentration. […]
Beyond 48 hours, the level of drug falls outside the linear range of the Standard curve and is not calculated. […]

[2] = tested on: AT-EAE model of multiple sclerosis; assay: Adoptive transfer experimental autoimmune encephalomyelitis (AT-EAE) model of multiple sclerosis; type: in vivo, Lewis rats; conditions: for Survival to the end of the study: n=5 rats per group; for peak clinical severity score average: scale 0-6
[3] = tested on: IL-2 and IFNg production from anti-CD3 and anti-CD28 stimulated human PBMCs; assay: Inhibition of T cell cytokine production following anti-CD3 and anti-CD28 antibody stimulation of PBMCs; type: cell-based; conditions: 48 hours
Method: Inhibition of T cell cytokine production following Anti-CD3 and anti-CD28 antibody stimulation of PBMCs. PBMCs were previously isolated from normal human donor Leukopheresis packs, purified by density gradient centrifugation (Ficoll Hypaque), and cryopreserved using INCELL Freezing Medium. PBMCs were thawed (95% viability), washed, and seeded (in RPMI complete medium containing serum replacement, PSG) at 2×10^5 cells per well into 96-well flat bottom plates. Cells were pre-incubated with serially diluted (100 nM-0.003 nM final) ShK[1-35], Fc-L10-ShK[1-35], or Fc control for 1 hour before the addition of aCD3 and aCD28 (2.5 ng/mL and 100 ng/mL respectively) in a final assay volume of […]. Supernatants were collected after 48 hours, and analyzed using the Meso Scale Discovery (MSD) SECTOR™ Imager 6000 (Meso Scale Discovery, Gaithersbury, Md.) to measure the IL-2 and IFNg protein levels by utilizing electrochemiluminescence (ECL). […] of supernatant was added to the MSD multi-spot 96-well plates (each well containing IL-2, TNFa, and IFNg capture antibodies). The plates were sealed and incubated at room temperature on a plate shaker for 1 hour. Then […] of Ruthenium-labeled detection antibodies (1 ug/ml final of IL-2, TNFα, and IFNγ in Antibody Dilution Buffer) and […] of 2×MSD Read Buffer were added. The plates were sealed, covered with tin foil, and incubated at room temperature on a plate shaker for 1 hour. The plates were then read on the SECTOR™ Imager 6000. […] (POC=Percent Of Control of response in the absence of inhibitor).

[4] = cited from earlier work
[5] = tested on: upregulation of CD40L and IL-2R on CD4+ T cells in human whole blood; assay: Ex vivo human whole blood assay, thapsigargin-induced cell surface CD40L and IL-2R on T cells (FACS); type: cell-based; conditions: 24 hours
[6] = tested on: thapsigargin-induced IL-2 and IFN-g production in human whole blood; assay: Ex vivo human whole blood assay, thapsigargin-induced secretion of IL-2 and IFN-g; type: cell-based; conditions: for Thapsigargin-induced IFN-g production in human whole blood / Thapsigargin-induced IL-2 production in human whole blood: two donors, 48 hours
human Kv1.1 = biological target: T1, human Kv1.1 (Homo sapiens, UniProt Q09470); assay: Whole cell patch clamp electrophysiology, HEK293 cell expression system, human Kv1.1; type: cell-based
T1 construct: expressed in transfected cells; host or cells: HEK293
T1 sequence (Q09470 whole entry): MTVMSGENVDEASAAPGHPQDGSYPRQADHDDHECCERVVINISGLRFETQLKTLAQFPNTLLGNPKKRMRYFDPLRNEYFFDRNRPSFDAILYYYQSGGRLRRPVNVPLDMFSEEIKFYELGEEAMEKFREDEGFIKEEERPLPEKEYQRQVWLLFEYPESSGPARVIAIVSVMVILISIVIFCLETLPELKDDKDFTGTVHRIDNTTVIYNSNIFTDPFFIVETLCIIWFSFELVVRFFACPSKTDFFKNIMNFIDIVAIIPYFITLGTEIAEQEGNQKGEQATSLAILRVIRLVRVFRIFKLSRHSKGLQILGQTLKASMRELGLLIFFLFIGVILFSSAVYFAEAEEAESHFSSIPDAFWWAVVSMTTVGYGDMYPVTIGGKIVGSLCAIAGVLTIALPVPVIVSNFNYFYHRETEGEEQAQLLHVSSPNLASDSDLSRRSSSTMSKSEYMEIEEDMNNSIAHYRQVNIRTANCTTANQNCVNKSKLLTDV

With “PEG-ShK[1-35]: synthetic ShK N-terminally PEGylated with 20 kDa monomethoxy-PEG-aldehyde by reductive alkylation; about 24-kDa” the IC50 (Kv1.3; blockade of peak outward potassium current, HEK293 cells stably expressing human Kv1.3, read-out: peak IC50) was 0.169 nM, the “terminal half-life (t1/2 b)” value ([1]; IV injection 1 mg/kg, estimated from curve) was 6 to 12 h and the “Time of significant suppression of Kv1.3 current (<70 POC) by serum” value [1] was “more than 24 hours”. The “Average body weight lost” value ([2]; 1 ug/kg) was 30 g, the Onset of disease ([2]; 1 μg/kg SC daily days −1 to 3) was 4 days and the “Average body weight lost” value ([2]; 10 μg/kg) was 18 g. For the same molecule, the Onset of disease ([2]; 10 μg/kg SC daily days −1 to 3) was 4.5 days, the “Survival to the end of the study” value ([2]; 10 μg/kg) was “all but one rat survived to the end of the study” and the “peak clinical severity score average” value ([2]; 10 μg/kg) was under 2. For the same molecule, the “Average body weight lost” value ([2]; 100 μg/kg) was 11 g, the Onset of disease ([2]; 100 μg/kg SC daily days −1 to 3) was 4.5 days and the “Survival to the end of the study” value ([2]; 100 μg/kg) was “all but one rat survived to the end of the study”. The “peak clinical severity score average” value ([2]; 100 μg/kg) was under 2 and the “Disease severity and survival (in words)” value ([2]; SC 10 μg/kg daily from day −1 to day 3) was “significantly reduced disease severity and increased survival”.
In the case of “Fc-L-KTX1: peptibody: Fc fused via linker to Kaliotoxin1 (KTX1, SEQ ID NO: 24)”, the “Blockade of human Kv1.3 current (in words)” value (“Blockade” below) (Kv1.3) is reported as “blocked the human Kv1.3 current in a dose-dependent fashion”.
With `CC[C@H](C)[C@@H]1NC(=O)[C@@H](NC(=O)[C@H](CO)NC(=O)[C@@H](N)CCCNC(=N)N)CSSC[C@@H](C(=O)O)NC(=O)[C@H]([C@@H](C)O)NC(=O)CNC(=O)[C@@H]2CSSC[C@@H]3NC(=O)[C@H](CCC(N)=O)NC(=O)[C@H](Cc4ccccc4)NC(=O)[C@H](C)NC(=O)[C@H]([C@@H](C)O)NC(=O)[C@H](CSSC[C@H](NC(=O)[C@H](Cc4ccccc4)NC(=O)[C@H](CO)NC(=O)[C@H](CC(C)C)NC(=O)[C@H](CCCNC(=N)N)NC(=O)[C@H](Cc4ccc(O)cc4)NC(=O)[C@H](CCCCN)NC(=O)[C@H](CCSC)NC(=O)[C@H](CO)NC(=O)[C@H](Cc4cnc[nH]4)NC(=O)[C@H](CCCCN)NC3=O)C(=O)N[C@@H](CCCNC(=N)N)C(=O)N[C@@H](CCCCN)C(=O)N[C@@H]([C@@H](C)O)C(=O)N2)NC(=O)[C@H](CCCNC(=N)N)NC(=O)[C@H](CO)NC(=O)[C@H](CCCCN)NC(=O)[C@@H]2CCCN2C(=O)[C@H]([C@@H](C)CC)NC(=O)[C@H]([C@@H](C)O)NC(=O)[C@H](CC(=O)O)NC1=O` [ShK[1-35], Stichodactyla helianthus neurotoxin, reference compound] the “Blockade” value (Kv1.3) was “potently block Kv1.3”, the “Time of significant suppression of Kv1.3 current (<70 POC) by serum” value [1] was at most 1 h and the “Inhibition of IFNg production” value [3] was “only partial inhibtion”. The “Inhibition of IL-2 production” value [3] was “only partial inhibtion”, the “half-life in vivo of ShK” value [4] was about 20 min and the “half-life of native ShK” value ([4]; in vivo) was “approximately 0.33 hour”. For the same molecule, the “Thapsigargin-induced upregulation of CD40L on T cells in human whole blood” value [5] was “suppressed”, the “Thapsigargin-induced upregulation of the IL-2R on T cells in human whole blood” value [5] was “suppressed” and the “Thapsigargin-induced upregulation of the IL-2R on T cells in human whole blood” value ([5]; listed as ShK) was “suppressing activation of the IL-2R”. The “Thapsigargin-induced IFN-g production in human whole blood” value (“Thapsigargin-induced IFN-g production” for short) [6] was “suppressed”, the “Thapsigargin-induced IL-2 production in human whole blood” value (“Thapsigargin-induced IL-2 production” below) [6] was “suppressed” and the “Thapsigargin-induced IL-2 production” value ([6]; listed as ShK) was “potently blocked IL-2 secretion”.
For “iberiotoxin (QFTDVDCSVSKECWSVCKDLFGVDRGKCMGKKCRCYQ; BKCa peptide inhibitor sequence - IbTx) [reference compound]”, the “Thapsigargin-induced upregulation of CD40L on T cells in human whole blood” value [5] was “no significant activity”, the “Thapsigargin-induced upregulation of the IL-2R on T cells in human whole blood” value [5] was “no significant activity” and the “Thapsigargin-induced IFN-g production” value [6] was “no significant activity”. The “Thapsigargin-induced IL-2 production” value [6] was “no significant activity”.
For “PEG-ShK[2-35]: folded Des-Arg1-ShK N-terminally mono-PEGylated with 20 kDa MeO-PEG-aldehyde by reductive amination ({mPEG 20 kDa}-SCIDTIPKSRCTAFQCKHSMKYRLSFCRKTCGTC; disulfide (positions not given here); ends not checked; also: folded (disulfides not given here))”, the “Blockade” value (Kv1.3) was “active in blocking human Kv1.3”.
With “Fc-L10-OSK1[K7S,E16K,K20D]: OSK1-peptibody with K7S, E16K and K20D substitutions; SEQ ID NO: 1047” the “selectivity ratio hKv1.1/hKv1.3” value (Kv1.3) was 12 and the “Potency and selectivity Kv1.3 versus Kv1.1 (in words)” value (human Kv1.1) was “significant decrease in potency as well as selectivity”.
With “Fc-L10-OSK1[E16K,K20D]: OSK1-peptibody with E16K and K20D substitutions; SEQ ID NO: 1045” the “selectivity ratio hKv1.1/hKv1.3” value (Kv1.3) was 403.
For “Fc-L10-ShK[2-35]: human IgG1 Fc fused via 10 amino acid linker to ShK[2-35]; SEQ ID NO: 81”, the “Blockade” value (Kv1.3) was “potently blocks human Kv1.3 current”, the “Thapsigargin-induced upregulation of CD40L on T cells in human whole blood” value [5] was “blocked” and the “Thapsigargin-induced upregulation of the IL-2R on T cells in human whole blood” value [5] was “blocked; also recorded: suppressing activation of the IL-2R”. For the same molecule, the “Potency in blocking IL-2 production relative to cyclosporine A (by IC50)” value ([6]; human whole blood) was “more than 200 times”, the “Thapsigargin-induced IFN-g production” value [6] was “suppressed; also recorded: blocked” and the “Thapsigargin-induced IL-2 production” value [6] was “suppressed; also recorded: potently blocked IL-2 secretion”.
With “Fc-L10-OSK1[K7S]: OSK1-peptibody with lysine to serine substitution at position 7; SEQ ID NO: 1043” the “selectivity ratio hKv1.1/hKv1.3” value (Kv1.3) was 269 and the IC50 (human Kv1.1; whole cell patch clamp, HEK293 cell expression system, human Kv1.1, read-out: hKv1.1:IC50) was 100 nM.
With dendrotoxin-K the “Thapsigargin-induced upregulation of CD40L on T cells in human whole blood” value [5] was “no significant activity” and the “Thapsigargin-induced upregulation of the IL-2R on T cells in human whole blood” value [5] was “no significant activity”.
